Active and inactive are the calls of the source.
Tests used:
[1] = target: Hexokinase (Trypanosoma brucei, UniProt Q38C41); assay: Confirmation assay for inhibitors of Trypanosoma brucei hexokinase 1-Analogue-first series. [Related pubchem assays (depositor defined):AID1430, AID1632, AID2516, AID2560, AID2579, AID2600, AID449725, AID492951]; assay type: functional
[2] = HeLa cell cytotoxicity, dose response, cytotoxicity control for MgcRacGAP inhibitor project (AID 624300); assay type: functional
[3] = inhibition of K1F phage lysis, E. coli UTI89, bacterial capsule biogenesis inhibitors, alamar blue (AID 488966); assay type: functional
[4] = target: T1, Oxysterols receptor LXR-beta (Homo sapiens, UniProt P55055); assay: LXR agonists, Gal4 luciferase reporter, dose response, counter-screen for ssDAF-12 agonist project, cell-based, luminescence, HEK293, S. stercoralis campaign (AID 720737); assay type: functional; settings: read-out: IC50 (the source's name)
T1 sequence (P55055 whole entry): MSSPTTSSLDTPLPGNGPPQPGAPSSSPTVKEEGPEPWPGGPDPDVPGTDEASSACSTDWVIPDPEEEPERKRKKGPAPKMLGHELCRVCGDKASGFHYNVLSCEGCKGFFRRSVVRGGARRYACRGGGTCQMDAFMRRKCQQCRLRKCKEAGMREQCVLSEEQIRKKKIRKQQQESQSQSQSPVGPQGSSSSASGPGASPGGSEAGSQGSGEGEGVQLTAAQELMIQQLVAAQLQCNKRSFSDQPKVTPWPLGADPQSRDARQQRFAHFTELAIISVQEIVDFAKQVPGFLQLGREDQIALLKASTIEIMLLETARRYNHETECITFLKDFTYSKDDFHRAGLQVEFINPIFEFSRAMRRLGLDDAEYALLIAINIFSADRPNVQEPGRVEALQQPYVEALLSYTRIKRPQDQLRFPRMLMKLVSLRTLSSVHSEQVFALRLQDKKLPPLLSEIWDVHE

[5] = target: T2, ORF 73 (Human herpesvirus 8, UniProt O40947); assay: inhibitors of C-LANA binding to LBS DNA, dose response, biochemical, fluorescence polarization, cherry-picked samples (AID 504725); set-up: species or system Human gammaherpesvirus 8;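 further: fluorescence polarization of a labeled DNA duplex reporting LANA DNA binding; potency is for inhibitors that block LANA binding to the DNA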
T2 sequence (O40947 whole entry): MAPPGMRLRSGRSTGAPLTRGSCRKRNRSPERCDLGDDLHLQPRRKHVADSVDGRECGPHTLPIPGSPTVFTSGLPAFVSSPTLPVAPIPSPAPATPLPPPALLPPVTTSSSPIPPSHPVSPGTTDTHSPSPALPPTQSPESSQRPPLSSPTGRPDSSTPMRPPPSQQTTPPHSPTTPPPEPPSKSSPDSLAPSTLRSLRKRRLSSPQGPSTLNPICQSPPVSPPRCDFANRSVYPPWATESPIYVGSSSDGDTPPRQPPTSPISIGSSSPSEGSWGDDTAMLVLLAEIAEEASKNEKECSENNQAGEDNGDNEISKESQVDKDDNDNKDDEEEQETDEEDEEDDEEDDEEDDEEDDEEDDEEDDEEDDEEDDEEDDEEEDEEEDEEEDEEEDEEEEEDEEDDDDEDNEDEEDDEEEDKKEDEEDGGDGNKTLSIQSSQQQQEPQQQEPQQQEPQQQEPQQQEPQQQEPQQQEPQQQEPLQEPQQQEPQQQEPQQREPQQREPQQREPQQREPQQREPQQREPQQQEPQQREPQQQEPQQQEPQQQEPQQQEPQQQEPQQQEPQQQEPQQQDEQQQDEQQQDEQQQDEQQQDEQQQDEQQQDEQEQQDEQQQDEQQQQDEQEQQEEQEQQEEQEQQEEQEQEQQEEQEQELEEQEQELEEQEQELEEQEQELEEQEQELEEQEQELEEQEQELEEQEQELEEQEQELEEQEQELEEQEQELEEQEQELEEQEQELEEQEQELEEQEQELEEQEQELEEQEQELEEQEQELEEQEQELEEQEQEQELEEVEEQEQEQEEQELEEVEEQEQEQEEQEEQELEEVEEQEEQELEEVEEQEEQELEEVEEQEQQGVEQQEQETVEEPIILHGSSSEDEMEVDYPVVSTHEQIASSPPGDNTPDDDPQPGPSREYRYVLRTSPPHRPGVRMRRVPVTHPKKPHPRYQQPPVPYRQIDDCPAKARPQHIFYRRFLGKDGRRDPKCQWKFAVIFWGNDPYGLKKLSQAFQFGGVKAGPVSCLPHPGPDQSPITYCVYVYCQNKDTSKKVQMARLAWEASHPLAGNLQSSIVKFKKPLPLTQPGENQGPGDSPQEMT

[6] = tested on: HeLa; assay: HeLa cell cytotoxicity, dose response, cytotoxicity control, 24 h, cherry-picked samples (AID 504726); assay type: functional, cell-based; settings: Homo sapiens;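 further: potency for cytotoxicity as loss of luminescence signal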
[7] = target: T3, Rac GTPase-activating protein 1 (Homo sapiens, UniProt Q9H0H5); assay: MgcRacGAP GTPase-activating activity inhibitors, confirmation, biochemical, ADP Hunter fluorescence, primary and confirmatory (AID 624330); assay type: functional
T3 sequence (Q9H0H5 whole entry): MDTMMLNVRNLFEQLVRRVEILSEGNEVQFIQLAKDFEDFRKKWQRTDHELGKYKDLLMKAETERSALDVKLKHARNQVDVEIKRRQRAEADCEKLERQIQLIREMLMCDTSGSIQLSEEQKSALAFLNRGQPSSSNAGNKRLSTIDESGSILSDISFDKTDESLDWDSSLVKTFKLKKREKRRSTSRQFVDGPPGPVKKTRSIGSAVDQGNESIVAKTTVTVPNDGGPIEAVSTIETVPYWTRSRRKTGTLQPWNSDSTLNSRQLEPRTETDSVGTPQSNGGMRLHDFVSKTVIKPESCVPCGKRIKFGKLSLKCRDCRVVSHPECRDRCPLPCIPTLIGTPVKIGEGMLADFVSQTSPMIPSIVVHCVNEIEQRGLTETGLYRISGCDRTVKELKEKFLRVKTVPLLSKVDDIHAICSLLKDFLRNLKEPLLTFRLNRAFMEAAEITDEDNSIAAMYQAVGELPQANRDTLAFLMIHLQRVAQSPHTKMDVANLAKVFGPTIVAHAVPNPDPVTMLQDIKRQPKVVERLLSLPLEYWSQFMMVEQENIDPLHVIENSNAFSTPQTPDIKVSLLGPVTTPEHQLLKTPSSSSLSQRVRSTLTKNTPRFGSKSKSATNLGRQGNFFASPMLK

[8] = Luminescence-based cell-based high throughput dose response assay to identify activators of the DAF-12 from the parasite S. stercoralis (ssDAF-12).; assay type: functional
[9] = target: Glutathione S-transferase omega-1 (Homo sapiens, UniProt P78417); assay: GSTO1 inhibitor potency, recombinant enzyme, late-stage follow-up, biochemical, SE-Rh probe, in-gel fluorescence, powder samples, set 2 (AID 463142); assay type: functional
[10] = target: Potassium voltage-gated channel subfamily KQT member 2 (Rattus norvegicus, UniProt O88943); assay: retigabine-insensitive KCNQ2 potentiators, concentration-response, dose response, cell-based, retigabine-insensitive compounds (AID 2654); assay type: functional
[11] = target: DNA damage-inducible transcript 3 protein (Mus musculus, UniProt P35639); assay type: functional, Cricetulus griseus
[12] = tested on: H9c2; assay: cells; assay type: functional, cell-based; settings: Rattus norvegicus, H9c2, Myocardium;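 further: confirmatory concentration-response retest of ultra-high-throughput screening hits for modulation of myocardial damage; cell death induced by hydrogen peroxide oxidative stress; compound pretreatment for 60 min then peroxide exposure for 2 h; potency is for protecting the cells against peroxide damage rather than for killing them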
[13] = target: T4, X-box-binding protein 1 (Homo sapiens, UniProt P17861); assay type: functional, Cricetulus griseus;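 further: confirmatory dose-response counter-screen serving a CHOP assay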
T4 sequence (P17861 whole entry): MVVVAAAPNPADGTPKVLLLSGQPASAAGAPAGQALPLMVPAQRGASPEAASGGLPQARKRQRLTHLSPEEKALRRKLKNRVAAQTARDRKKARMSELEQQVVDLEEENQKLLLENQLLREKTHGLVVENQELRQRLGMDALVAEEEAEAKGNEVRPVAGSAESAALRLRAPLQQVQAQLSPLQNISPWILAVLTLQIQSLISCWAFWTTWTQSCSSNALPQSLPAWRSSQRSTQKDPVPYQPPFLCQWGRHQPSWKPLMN

[14] = target: G-protein coupled receptor 55 (Homo sapiens, UniProt Q9Y2T6); assay: GPR55 antagonists blocking LPI-driven arrestin recruitment, primary screen, imaging, U2OS, beta-arrestin-GFP, LPI agonist (AID 2013); assay type: functional;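 further: antagonist potency measured as reduced agonist-driven arrestin aggregation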
Chain of G-protein coupled receptor 55 (Q9Y2T6 whole entry): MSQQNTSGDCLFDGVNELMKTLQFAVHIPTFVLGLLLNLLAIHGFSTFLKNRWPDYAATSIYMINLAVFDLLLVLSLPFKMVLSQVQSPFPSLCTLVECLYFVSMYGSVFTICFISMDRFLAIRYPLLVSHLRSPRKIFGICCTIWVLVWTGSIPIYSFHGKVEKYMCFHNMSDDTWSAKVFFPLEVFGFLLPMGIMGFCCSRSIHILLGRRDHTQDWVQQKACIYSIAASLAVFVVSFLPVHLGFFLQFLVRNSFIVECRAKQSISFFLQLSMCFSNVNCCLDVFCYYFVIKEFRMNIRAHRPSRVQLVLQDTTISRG

Chain of Glutathione S-transferase omega-1 (P78417 whole entry): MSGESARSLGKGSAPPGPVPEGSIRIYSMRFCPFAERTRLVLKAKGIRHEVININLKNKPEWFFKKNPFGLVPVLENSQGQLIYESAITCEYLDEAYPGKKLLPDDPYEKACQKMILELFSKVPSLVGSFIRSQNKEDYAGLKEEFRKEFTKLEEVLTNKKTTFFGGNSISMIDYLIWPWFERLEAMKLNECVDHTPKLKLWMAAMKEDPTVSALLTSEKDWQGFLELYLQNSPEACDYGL
Chain of DNA damage-inducible transcript 3 protein (P35639 whole entry): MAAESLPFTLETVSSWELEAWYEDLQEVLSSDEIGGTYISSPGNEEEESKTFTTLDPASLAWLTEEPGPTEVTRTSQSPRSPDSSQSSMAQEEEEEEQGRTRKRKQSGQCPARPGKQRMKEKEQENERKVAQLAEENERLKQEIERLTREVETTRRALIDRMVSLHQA
Chain of Hexokinase (Q38C41 whole entry): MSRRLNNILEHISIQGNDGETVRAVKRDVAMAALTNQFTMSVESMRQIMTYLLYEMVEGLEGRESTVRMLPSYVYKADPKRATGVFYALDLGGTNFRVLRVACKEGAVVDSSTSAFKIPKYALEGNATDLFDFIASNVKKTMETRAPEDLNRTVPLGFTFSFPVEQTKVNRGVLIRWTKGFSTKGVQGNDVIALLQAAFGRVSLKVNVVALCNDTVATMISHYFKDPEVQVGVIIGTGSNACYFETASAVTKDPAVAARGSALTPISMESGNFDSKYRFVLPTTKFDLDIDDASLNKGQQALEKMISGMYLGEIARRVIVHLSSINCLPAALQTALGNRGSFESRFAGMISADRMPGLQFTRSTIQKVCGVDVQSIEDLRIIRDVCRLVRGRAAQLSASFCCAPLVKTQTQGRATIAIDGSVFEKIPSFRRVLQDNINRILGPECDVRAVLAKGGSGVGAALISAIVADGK
Chain of Potassium voltage-gated channel subfamily KQT member 2 (O88943 whole entry): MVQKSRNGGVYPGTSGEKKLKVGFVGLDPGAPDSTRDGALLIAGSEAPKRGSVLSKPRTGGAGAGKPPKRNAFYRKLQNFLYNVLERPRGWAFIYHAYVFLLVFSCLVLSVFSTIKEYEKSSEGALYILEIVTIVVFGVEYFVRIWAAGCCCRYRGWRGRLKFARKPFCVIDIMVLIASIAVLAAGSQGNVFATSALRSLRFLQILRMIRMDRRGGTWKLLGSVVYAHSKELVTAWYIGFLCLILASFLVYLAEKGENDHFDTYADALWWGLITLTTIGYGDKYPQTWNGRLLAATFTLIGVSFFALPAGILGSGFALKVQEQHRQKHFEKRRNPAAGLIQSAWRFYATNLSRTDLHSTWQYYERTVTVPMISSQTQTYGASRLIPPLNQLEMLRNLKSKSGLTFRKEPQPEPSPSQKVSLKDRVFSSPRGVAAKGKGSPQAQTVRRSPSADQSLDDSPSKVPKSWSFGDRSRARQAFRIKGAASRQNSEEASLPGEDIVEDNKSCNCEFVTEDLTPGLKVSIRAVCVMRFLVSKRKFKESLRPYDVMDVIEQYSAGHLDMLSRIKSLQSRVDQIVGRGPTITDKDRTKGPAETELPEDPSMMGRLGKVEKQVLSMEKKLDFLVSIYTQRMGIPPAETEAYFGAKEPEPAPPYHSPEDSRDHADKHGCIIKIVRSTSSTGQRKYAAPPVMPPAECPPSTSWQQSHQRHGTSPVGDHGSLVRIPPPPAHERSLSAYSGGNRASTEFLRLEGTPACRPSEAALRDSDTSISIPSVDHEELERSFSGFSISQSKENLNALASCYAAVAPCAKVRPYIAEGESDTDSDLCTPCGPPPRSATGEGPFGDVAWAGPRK

O=c1c2ccc(F)cc2sn1Cc1ccccc1
IC50 [1]: > 25 µM (inactive)

CNc1c2cccc(C)c2nc2c(C(=O)NCCN(C)C)cccc12
CC50 [2]: 3.39 µM (active) | IC50 [3]: > 150 µM (active) | EC50 [4]: > 67.5 µM (inactive) | AC50 [5]: 5.35 µM (active) | AC50 [6]: 1.01 µM (active) | IC50 [7]: 34.6 µM (active) | IC50 [8]: > 67.5 µM (inactive)

O=C(NC1CCCCC1)C(c1cccnc1)N(C(=O)CCl)c1ccc(Cl)c(Cl)c1 (centres undefined)
IC50 [9]: 0.045 µM (active)

O=C(Nc1ccc(Br)nc1)Nc1cccc(F)c1
EC50 [10]: 4.04 µM (active)

CCOC(=O)c1c(C)[nH]c(O)c1/C=N/c1ccc(Cl)cc1
Absolute IC50 (CHOP) [11]: 10 µM | IC50 [12]: 13.8 µM (active) | Absolute IC50 (XBP1) [13]: 10 µM

CCOC(=O)C1=C(C)N=C(C)/C(=C(\O)OCC)C1c1ccc(Br)o1 (centres undefined)
IC50 [14]: 2.42 µM (active)

Source: ChEMBL document CHEMBL1201862, “PubChem BioAssay data set” (2004)
